In one data set the target is T1, human recombinant MAO-B (Homo sapiens, UniProt P27338).
T1 construct: purchased Sigma Aldrich
T1 sequence (P27338 1-520): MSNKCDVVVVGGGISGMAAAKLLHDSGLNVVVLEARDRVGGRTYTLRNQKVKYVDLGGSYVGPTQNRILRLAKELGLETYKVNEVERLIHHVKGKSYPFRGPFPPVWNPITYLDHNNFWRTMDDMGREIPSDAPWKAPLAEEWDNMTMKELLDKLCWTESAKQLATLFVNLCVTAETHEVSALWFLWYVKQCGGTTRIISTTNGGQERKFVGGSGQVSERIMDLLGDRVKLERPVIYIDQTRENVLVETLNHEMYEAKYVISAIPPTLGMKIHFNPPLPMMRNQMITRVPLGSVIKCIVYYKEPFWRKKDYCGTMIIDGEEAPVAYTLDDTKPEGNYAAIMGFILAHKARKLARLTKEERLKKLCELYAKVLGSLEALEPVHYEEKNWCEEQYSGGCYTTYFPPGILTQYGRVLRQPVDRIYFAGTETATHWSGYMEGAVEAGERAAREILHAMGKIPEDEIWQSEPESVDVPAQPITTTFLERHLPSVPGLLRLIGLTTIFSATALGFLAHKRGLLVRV
The experiment in a line: fluorometric monoamine oxidase B inhibition assay. Format: biochemical. To be noted: read-out: % inhibition MAO-B (1 µM), mean of two independent experiments.

For a further data set, the system named is 6 Hz (32 mA) seizures. The experiment in a line: 6 Hz (32 mA) psychomotor seizure model.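 Further: adult male albino Swiss CD-1 mice, each used once, with compounds suspended in 1% Tween 80 in water as vehicle.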 To be noted: Mus musculus, ip, 0.5 h.
For another data set, the system named is SH-SY5Y cells. The experiment in a line: neurocytotoxicity MTT viability assay. It is filed as cell-based, human. To be noted: 1–50 µM, 24 h. The procedure:
(§1) To evaluate selected compounds’ hepatocytotoxicity and neurocytotoxicity, a human hepatocellular carcinoma cell line, HepG2 (ATCC® HB-8065™), and a human neuroblastoma cell line, SH-SY5Y (ATCC®, CRL-2266™), were used. Both cell lines were cultured in standard culture conditions (5% CO2, 37 °C, 95% humidity) using Dulbecco′s Modified Eagle′s—Medium (DMEM; Gibco, Thermo Scientific, Waltham, MA, USA) supplemented with 10% (vol/vol) fetal bovine serum (FBS; Gibco, Thermo Scientific, Waltham, MA, USA) and an antibiotic mixture (Penicillin, Streptomycin, Amphotericin B; Gibco, Thermo Scientific, Waltham, MA, USA). Cells were cultured with compounds 5, […], or 39 (1–50 µM) for 24 h and then an MTT (3-(4,5-dimethylthiazol-2-yl)-2,5diphenyltetrazolium bromide, Sigma-Aldrich, St. Louis, MO, USA) viability assay was performed. The formazan crystals were dissolved in DMSO (Sigma-Aldrich, St. Louis, MO, USA), and the absorbance at 570 nm was measured using a microplate reader (SpectraMax® iD3, Molecular Devices, San Jose, CA, USA). The experiment was performed three times in duplicate. Each bar represents the mean (±SEM) percentage of viable cells in comparison to the control (defined as 100% and represented by untreated cells).
Figure 3 The viability of SH-SY5Y cells incubated in the presence of compounds 5, 17, and 39. […] Cell viability was measured using an MTT assay. […]

The test system of data set [1] is maximal electroshock (MES) seizures. The experiment in a line: maximal electroshock seizure (MES) test. The conditions noted are these: Mus musculus, ip, mice i.p. It is filed as in vivo, mice. The text has this: Epilepsy is a multifaceted disorder with often unclear etiology, making it challenging to pinpoint a specific receptor or transporter as the definitive target. Consequently, the discovery of ASMs deviates from the traditional drug development pathway, which typically involves designing a new molecule, docking it with a specific biological target, and performing chemical synthesis, followed by in vitro assays. Instead, numerous animal seizure models, which mirror various types of human epileptic seizures, are initially employed in the process of new ASM discovery. This approach has been instrumental in the identification and introduction into clinical practice of all currently used ASMs and continues to be a cornerstone in the preclinical development of new anticonvulsants. The primary justification for prioritizing in vivo screening over in vitro binding and functional studies is the complex and often not fully elucidated mechanisms of action of known ASMs. This approach also facilitates the discovery of compounds with novel, previously undefined pharmacodynamic properties. In light of this, we evaluated all compounds obtained in the current studies using the MES test, which remains one of the most valuable preclinical screening models for tonic-clonic seizures, as well as partial convulsions with or without secondary generalization in humans. This test allows for a comprehensive assessment of the anticonvulsant efficacy of new ASM candidates and is considered highly relevant for predicting their therapeutic efficacy in human epilepsy. The MES test was carried out in mice following the intraperitoneal (i.p.) administration of a screening dose of 100 mg/kg in a group consisting of four animals. The efficacy of the compounds synthesized was evaluated at 0.5 h pretreatment time.
Fresh solutions were prepared daily for each experimentation session.
Each group consisted of six animals.
Background: The maximal electroshock test induces tonic seizures with an electrical stimulus.

Data set [2] is described as follows: rotarod test (acute neurological toxicity, motor coordination). The conditions noted are these: male, CD-1 (albino Swiss), mouse, in vivo, ip, mice i.p. Format: in vivo. (In the rotarod test animals must keep their balance on a rotating rod.)
Experimental: The protective indexes (PIs) were then calculated as the ratio of TD50 to ED50 (PI = TD50/ED50), providing an assessment of the therapeutic window for each compound.
Another data set concerns HepG2 cells. The experiment in a line: hepatocytotoxicity MTT viability assay. Format: cell-based, human. To be noted: 1–50 µM, 24 h. The method, then: as §1
Figure 2 The viability of HepG2 cells incubated in the presence of 5, 17, and 39. HepG2 cells were exposed to growing concentrations (1–50 µM) of tested compounds for 24 h. Cell viability was measured using an MTT assay. Bars represent mean percent of cell viability normalized to non-treated cells (100%) ± SEM. The doxorubicin was tested as a positive control.

The structures appear in SMILES notation. Like-named read-outs stand apart in the source and are kept apart here.

Turning to `CC(C(=O)NCc1ccc(OCc2ccc(OC(F)(F)F)cc2)cc1)N1C(=O)CCC1=O` (stereo not shown) [Compound 17, 2-(2,5-dioxopyrrolidin-1-yl)-N-(4-((4-(trifluoromethoxy)benzyl)oxy)benzyl)propanamide], the melting point (in general, the temperature of the solid-liquid transition) lay in the range of 104.1 to 104.8 °C. In addition, on human recombinant MAO-B, the inhibition (in general, the percentage by which the read-out fell short of the control) at 1 µM came out at 0%. Moreover, in the data set on 6 Hz (32 mA) seizures (read-out: ED50 6 Hz (32 mA), mice i.p., TPE 0.5 h, 95% confidence interval in parentheses), the ED50 (in general, the midpoint of the dose-response relation) was 77 mg/kg. Moreover, the responders at 100 mg/kg with 6 Hz (32 mA) seizures (read-out: protection (efficacy) in the 6 Hz (32 mA) screening) came to 75%. For the same molecule, the “toxic effect on SH-SY5Y cell viability (MTT)” value with SH-SY5Y cells is given as “do not exhibit toxic effects”. For the same molecule, in data set [1] (100 mg/kg, 0.5 h, four mice, read-out: protection (efficacy) in the MES screening), the responders at 100 mg/kg worked out at 100%. Moreover, the median effective dose (ED50) in data set [1] (TPE 0.5 h, 95% confidence interval in parentheses) was 21 mg/kg. In addition, the responders at 100 mg/kg in data set [1] (dose of 100 mg/kg, pretreatment time 0.5 h, read-out: MES test: number of mice protected / number of mice tested (converted)) was 100%. Moreover, the TD50 (commonly the 50% point of the dose-response relation for the toxic effect studied) at 0.5 h in data set [2] was above 300 mg/kg. In the data set with HepG2 cells, the “toxic effect on HepG2 cell viability (MTT)” value was “do not exhibit toxic effects”.
